{"source": "patent US20250361240A1", "about": "“PYRANOPYRIDINE COMPOUND, PROCESS FOR PREPARING THE SAME, PHARMACEUTICAL COMPOSITION AND USE THEREOF” (Zhejiang Yangli Pharmaceutical Technology Co., Ltd., priority 2024, published 2025)", "key": {"aldosterone synthase": {"biological_target": "aldosterone synthase (Homo sapiens (Human), UniProt P19099)", "sequence (P19099 25-503)": "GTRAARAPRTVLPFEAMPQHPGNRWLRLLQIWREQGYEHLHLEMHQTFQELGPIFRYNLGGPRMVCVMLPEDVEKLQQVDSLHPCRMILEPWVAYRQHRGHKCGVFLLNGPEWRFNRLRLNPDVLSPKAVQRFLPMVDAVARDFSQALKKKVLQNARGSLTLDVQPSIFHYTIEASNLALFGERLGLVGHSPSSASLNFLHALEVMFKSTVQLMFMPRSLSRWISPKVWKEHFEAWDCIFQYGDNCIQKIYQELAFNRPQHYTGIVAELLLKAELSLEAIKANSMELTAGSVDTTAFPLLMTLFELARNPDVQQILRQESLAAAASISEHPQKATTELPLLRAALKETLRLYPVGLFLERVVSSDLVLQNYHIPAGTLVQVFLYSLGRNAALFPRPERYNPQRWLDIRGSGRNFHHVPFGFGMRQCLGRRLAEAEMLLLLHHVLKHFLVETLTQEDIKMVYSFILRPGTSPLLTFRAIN", "conditions": "phase I clinical study, cited from earlier work"}, "CYP1A2": {"biological_target": "CYP1A2 (Homo sapiens (Human), UniProt P05177)", "sequence (P05177 whole entry)": "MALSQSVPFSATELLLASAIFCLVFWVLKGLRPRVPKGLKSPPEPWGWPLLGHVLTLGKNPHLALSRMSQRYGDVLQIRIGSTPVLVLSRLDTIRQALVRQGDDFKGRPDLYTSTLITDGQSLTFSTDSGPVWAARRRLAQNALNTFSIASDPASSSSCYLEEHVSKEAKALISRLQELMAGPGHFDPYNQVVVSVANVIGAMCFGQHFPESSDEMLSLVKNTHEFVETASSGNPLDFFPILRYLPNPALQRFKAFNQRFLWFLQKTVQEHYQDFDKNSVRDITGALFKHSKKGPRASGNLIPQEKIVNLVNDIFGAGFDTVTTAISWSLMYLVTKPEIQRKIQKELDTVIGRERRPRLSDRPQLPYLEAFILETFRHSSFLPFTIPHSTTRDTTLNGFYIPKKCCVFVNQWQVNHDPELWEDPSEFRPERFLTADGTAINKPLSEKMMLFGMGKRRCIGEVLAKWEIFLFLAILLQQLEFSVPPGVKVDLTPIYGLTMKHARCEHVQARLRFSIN", "assay": "In vitro inhibitory activity against common CYP450 enzymes: CYP1A2", "format": "in vitro ADME", "conditions": "microsomes, substrate Phenacetin; read-out: IC50 CYP1A2", "protocol": "(§1) A working solution of the test compound was prepared in a solvent of dimethyl sulfoxide (DMSO) (starting at a final concentration of 50 μM, 3-fold dilution of 7 concentration points). The corresponding microsomes (CORNING, Cat No.452117) and the corresponding substrate solution were prepared (components were shown in Table 2). The working solution of the test compound and the corresponding microsomes were mixed with the corresponding substrate solution and the HLM working solution. The mixture was preheated in a 37.0° C. water bath for 10 min. NADPH cofactor (BONTAC, Cat No.BT04) was added. The resultant mixture was incubated for 10 min in a 37.0° C. water bath. The reaction was terminated by adding cold stop solution. [table] [table] The sample was centrifuged at 4000 rpm for 20 min to precipitate protein and the supernatant was transferred to HPLC water and shaken for 10 min."}, "aldosterone synthesis": {"system": "aldosterone synthesis", "assay": "Pharmacodynamic test in cynomolgus monkeys with ACTH stimulation: aldosterone in plasma", "format": "in vivo, cynomolgus monkeys (Macaca fascicularis)", "from_the_text": "Adult cynomolgus monkeys (Macaca fascicularis) with suitable body weight and age were selected. 1 male and 1 female cynomolgus monkeys were used for experiment. The adaptation period was 1 week. On the day of the experiment, monkeys were individually housed in stainless steel mesh cages for testing.\nOral treatment and ACTH working solution (working solution diluted to the desired concentration in PBS sterile solution by ultrapure water filtration through a 0.22 μm filter using Tetracosactrin (HY-P0060, MCE)) were administered as follows: • T=0, 2 monkeys in each group were orally administered 0.5 mg/kg (compound was suspended in 5% aqueous sodium hydroxymethylcellulose solution as vehicle) in a fixed volume of 2 mL/kg; • T=+1 hour (i.e., 1 hour after administration), 14.5 μg/kg of the aforementioned ACTH working solution was injected intramuscularly.\nSampling test: Blood samples (collected in EDTA anticoagulant tubes) were collected before oral administration (Pre-dose) and 0.5 h, 1 h, 2 h, 4 h, 6 h and 12 h after administration for cortisol concentration measurement in plasma. The blood was centrifuged at 10000 rpm for 15 minutes at 4° C., followed by separation of the plasma and uniform storage at −80° C. for further analysis using an Roche biochemical analyzer to detect aldosterone and cortisol in plasma, and a portion of the plasma (0.5 h, 1 h, 2 h, 4 h, 6 h, and 12 h after administration, and an additional blood collection after 24 h) was taken simultaneously to determine the pharmacokinetic parameters by LC/MS.\nThe above experiment was repeated except that: T=0, two monkeys in each group were orally administered at a dose of 0.05 mg/kg (compound was suspended in 5% aqueous sodium hydroxymethylcellulose as vehicle) in a fixed volume of 2 mL/kg."}, "CYP2C19": {"biological_target": "CYP2C19 (Homo sapiens (Human), UniProt P33261)", "sequence (P33261 whole entry)": "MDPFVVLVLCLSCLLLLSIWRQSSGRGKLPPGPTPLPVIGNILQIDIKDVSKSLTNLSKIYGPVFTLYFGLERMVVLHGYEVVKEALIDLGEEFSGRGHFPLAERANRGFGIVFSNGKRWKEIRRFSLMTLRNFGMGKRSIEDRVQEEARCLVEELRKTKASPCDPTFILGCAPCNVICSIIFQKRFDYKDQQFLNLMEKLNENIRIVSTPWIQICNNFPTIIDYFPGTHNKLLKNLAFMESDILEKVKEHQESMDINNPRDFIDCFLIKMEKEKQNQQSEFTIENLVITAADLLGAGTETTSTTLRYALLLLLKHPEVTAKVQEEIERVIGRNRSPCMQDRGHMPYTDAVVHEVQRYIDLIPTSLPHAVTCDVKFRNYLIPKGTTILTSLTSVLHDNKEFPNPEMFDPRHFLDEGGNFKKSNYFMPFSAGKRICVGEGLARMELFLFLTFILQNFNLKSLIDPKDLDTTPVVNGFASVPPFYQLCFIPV", "assay": "In vitro inhibitory activity against common CYP450 enzymes: CYP2C19", "format": "in vitro ADME", "conditions": "microsomes, substrate (S)-(+)-Mephenytoin", "protocol": "as §1"}}, "data": [{"smiles": "CCC(=O)N[C@@H]1CCCc2c(-c3ccc4c(c3)CCC(=O)N4C)cncc21", "note": "[Baxdrostat, reference compound]", "values": [{"measurement": "reduction of aldosterone level in plasma", "setting": "aldosterone synthase; dose-dependent", "result": "more than 70%"}, {"measurement": "inhibition of aldosterone synthase relative to inhibition of cortisol synthesis", "setting": "aldosterone synthase", "result": 100, "unit": "times"}, {"measurement": "IC50", "setting": "CYP1A2", "result": "> 50", "unit": "µM"}, {"measurement": "Aldosterone Concentration in Plasma", "setting": "aldosterone synthesis; 0.05 mg/kg oral, 0.5 h", "result": 846.13, "unit": "pg/mL"}, {"measurement": "Aldosterone Concentration in Plasma", "setting": "aldosterone synthesis; 0.05 mg/kg oral, 1 h (ACTH at +1 hour)", "result": 964.09, "unit": "pg/mL"}, {"measurement": "Aldosterone Concentration in Plasma", "setting": "aldosterone synthesis; 0.05 mg/kg oral, 2 h", "result": 568.08, "unit": "pg/mL"}, {"measurement": "Aldosterone Concentration in Plasma", "setting": "aldosterone synthesis; 0.05 mg/kg oral, 4 h", "result": 119.97, "unit": "pg/mL"}, {"measurement": "Aldosterone Concentration in Plasma", "setting": "aldosterone synthesis; 0.05 mg/kg oral, 6 h", "result": 101.14, "unit": "pg/mL"}, {"measurement": "Aldosterone Concentration in Plasma", "setting": "aldosterone synthesis; 0.05 mg/kg oral, 12 h", "result": 139.85, "unit": "pg/mL"}, {"measurement": "Aldosterone Concentration in Plasma", "setting": "aldosterone synthesis; 0.05 mg/kg oral, Pre-dose", "result": 292.42, "unit": "pg/mL"}, {"measurement": "Aldosterone Concentration in Plasma", "setting": "aldosterone synthesis; 0.5 mg/kg oral, 0.5 h", "result": 593.37, "unit": "pg/mL"}, {"measurement": "Aldosterone Concentration in Plasma", "setting": "aldosterone synthesis; 0.5 mg/kg oral, 1 h (ACTH at +1 hour)", "result": 361.74, "unit": "pg/mL"}, {"measurement": "Aldosterone Concentration in Plasma", "setting": "aldosterone synthesis; 0.5 mg/kg oral, 2 h", "result": 119.96, "unit": "pg/mL"}, {"measurement": "Aldosterone Concentration in Plasma", "setting": "aldosterone synthesis; 0.5 mg/kg oral, 4 h", "result": 83.97, "unit": "pg/mL"}, {"measurement": "Aldosterone Concentration in Plasma", "setting": "aldosterone synthesis; 0.5 mg/kg oral, 6 h", "result": 86.11, "unit": "pg/mL"}, {"measurement": "Aldosterone Concentration in Plasma", "setting": "aldosterone synthesis; 0.5 mg/kg oral, 12 h", "result": 92.61, "unit": "pg/mL"}, {"measurement": "Aldosterone Concentration in Plasma", "setting": "aldosterone synthesis; 0.5 mg/kg oral, Pre-dose", "result": 126.77, "unit": "pg/mL"}, {"measurement": "IC50", "setting": "CYP2C19", "result": 6.52, "unit": "µM"}]}]}
